ChEMBL document CHEMBL1130469, “Prolyl endopeptidase inhibitors1: N-acyl derivatives of L-thioproline-pyrrolidine” (Bioorg Med Chem Lett, 1997)

Each compound was assayed against T1, Prolyl endopeptidase (Rattus norvegicus, UniProt O70196) (assay: Inhibitory activity against rat brain Prolyl endopeptidase (PEP)).
T1 sequence (O70196 whole entry): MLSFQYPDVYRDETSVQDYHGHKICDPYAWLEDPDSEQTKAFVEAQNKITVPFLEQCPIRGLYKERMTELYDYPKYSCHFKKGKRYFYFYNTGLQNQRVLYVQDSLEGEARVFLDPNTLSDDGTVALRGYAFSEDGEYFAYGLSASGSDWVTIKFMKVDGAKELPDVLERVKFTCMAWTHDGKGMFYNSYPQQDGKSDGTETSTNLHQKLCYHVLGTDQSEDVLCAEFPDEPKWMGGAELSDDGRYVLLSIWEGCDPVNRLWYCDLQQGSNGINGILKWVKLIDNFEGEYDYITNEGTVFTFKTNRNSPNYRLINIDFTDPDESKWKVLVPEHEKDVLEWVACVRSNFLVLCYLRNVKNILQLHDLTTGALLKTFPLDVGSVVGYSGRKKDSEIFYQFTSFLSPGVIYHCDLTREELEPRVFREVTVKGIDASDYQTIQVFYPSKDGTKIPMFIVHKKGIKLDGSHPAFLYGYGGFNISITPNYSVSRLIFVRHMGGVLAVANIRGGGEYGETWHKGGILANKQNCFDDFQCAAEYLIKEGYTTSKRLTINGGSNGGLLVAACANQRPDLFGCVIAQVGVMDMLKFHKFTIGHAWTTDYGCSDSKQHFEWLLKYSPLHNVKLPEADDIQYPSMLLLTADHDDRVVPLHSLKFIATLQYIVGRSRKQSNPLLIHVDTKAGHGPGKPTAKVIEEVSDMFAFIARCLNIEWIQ

In order of falling IC50:
1. CCCCCCCCCCCCCCCCCCCC(=O)N1CSC[C@H]1C(=O)N1CCCC1  1160 nM
2. CCCCCCCCCCCCCCCCCC(=O)N1CSC[C@H]1C(=O)N1CCCC1  904 nM
3. CCCCCCCCCCCCCCCC(=O)N1CSC[C@H]1C(=O)N1CCCC1  216 nM
4. CCC/C=C/C=C(\C)C(=O)N1CCC[C@H]1C(=O)N1CCCC1  207 nM
5. CCCC(=O)N1CSC[C@H]1C(=O)N1CCCC1  167 nM
6. CCCCCCCCC=CCCCCCCCC(=O)N1CSC[C@H]1C(=O)N1CCCC1  104 nM
7. CCCCCCCCCCCCCC(=O)N1CSC[C@H]1C(=O)N1CCCC1  80 nM
8. CCCCC/C=C(\C)C(=O)N1CCC[C@H]1C(=O)N1CCCC1  73 nM
9. CCCCCCCCCCCC(=O)N1CSC[C@H]1C(=O)N1CCCC1  46 nM
10. CCCCCCCCCCC(=O)N1CSC[C@H]1C(=O)N1CCCC1  42 nM
11. CCCCCCCCC(=O)N1CSC[C@H]1C(=O)N1CCCC1  38 nM
12. CCCCCCCCCC(=O)N1CSC[C@H]1C(=O)N1CCCC1  38 nM
13. CCCCCC(=O)N1CSC[C@H]1C(=O)N1CCCC1  37 nM
14. CCCCC(=O)N1CSC[C@H]1C(=O)N1CCCC1  37 nM
15. CCCCC/C=C/C(=O)N1CCC[C@H]1C(=O)N1CCCC1  34 nM
16. CCCCCCC(=O)N1CSC[C@H]1C(=O)N1CCCC1  17 nM
17. CCCCCCCC(=O)N1CSC[C@H]1C(=O)N1CCCC1  11 nM
